d = 2'-deoxy (DNA); r = 2'-OH (RNA)
Tests used:
Format in all cases: cell-based, human
caspase-3, -8, and -9 [1] = assay: Caspase activity assay in TRAIL-treated glioma cells
Experimental: (§1) Activity of caspase-3, -8, and -9 was measured using caspase-3/CPP32, FLICE/caspase-8, and APOPCYTO/caspase-9 […] assay kits, respectively, from Medical and Biological Laboratories Co. (Nagoya, Japan). Briefly, the treatment of cells with TG, GW, and/or PTPI for 24 h was followed by treatment with rTRAIL, VP 16 or Taxol. After 2 h (24 h) of treatment, all the cells were harvested, and samples were extracted with Cell Lysis Buffer. Concurrently, a sample for a negative control was extracted from the cells without apoptosis induction. A standard curve using the absorbance of p-nitroanilide standards was constructed, and then the specific activities on each sample were calculated according to the manufacturer's protocol.

[2] = system: STAT3, pY705-STAT3, FLIP, Bcl-2, Bax, pS392-p53, PTP1B, SHP-1; assay: Western blot of glioma cell protein extracts
Text: Rabbit polyclonal Abs against DR4, DR5, and PPARγ were obtained from Cayman Chemical. Mouse monoclonal Abs against STAT3, phosphotyrosine 705 STAT3 (pY705-STAT3), which is an activated form of STAT3, Bax, and Bcl-2 were obtained from Pharmingen. Rabbit polyclonal Abs against p53 and phosphor-Ser-392-p53 (pS392-p53) were obtained from Cell Signaling Technology (Beverly, Mass.). Mouse monoclonal Abs against PTP1B (PTPase1B; AE4-2J) and Src homology 2-containing PTP-1 (SHP1; 1SH01) and rabbit polyclonal Ab against FLIP were obtained from Calbiochem. Mouse monoclonal Ab of β-tubulin was obtained from Sigma. Horseradish peroxidase-linked Abs of sheep anti-mouse IgG and donkey anti-rabbit IgG were obtained from Amersham Biosciences.
Samples were extracted with buffer containing 1% Triton X-100, 150 mM NaCl, 50 mM Tris (pH 7.5), and 1 mM phenylmethylsulfonyl fluoride (Roche Applied Science) and were subjected to SDS-PAGE with 30 μg of general protein loading into each lane on a 10% polyacrylamide gel. Electrophoretic transfer to nitrocellulose membranes (Amersham Biosciences) was followed by immunoblotting. The signal was detected by using an ECL detection system (Amersham Biosciences).

[3] = system: LN-18, U-87MG, and MG-328 glioma cells; assay: Cell viability assay (Ann/PI staining, FACS) with TRAIL
Experimental: (§2) Treatment of cells with TG, GW, PTPI, and/or SHPI for 24 h was followed by treatment with rTRAIL, VP16 or Taxol, and all the cells, including cells that had not adhered, were harvested after 24 h (48 h). An annexin V-fluorescein isothiocyanate apoptosis detection kit I (Pharmingen) was used for viability assay of the cells. Cells were stained with annexin V-fluorescein isothiocyanate (Ann) and propidium iodide (PI) according to the manufacturer's protocol and were analyzed by FACS (Pharmingen). Cells that stained negative for both Ann and PI were defined as viable cells for viability assay.

caspase-3, -8, and -9 [4] = assay: Caspase activity assay in U-87MG treated with VP16 or Taxol; conditions: PTPI 50 μM and TG 30 μM for 24 h, then VP16 10 μM or Taxol 5 μM
Experimental: as §1
(§3) Based on this hypothesis, a determination was sought whether TG enhances the cytotoxic activities of etoposide (VP16) and paclitaxel (Taxol), which are known to involve activation of caspase-2, -8, -9, and -10 during their apoptosis induction (Lin et al. (2004) J. Biol. Chem. 279, 40755-40761.; Perkins et al. (2000) Cancer Res. 60, 1645-1653.; Park et al. (2004) J. Biol. Chem. 279, 51057-51067.). To confirm this, treatment of U-87MG with TG and/or PTPI was followed by treatment with VP16 (0.01-10 μM) or Taxol (0.005-5 μM). The cells were then subjected to cell viability (FIGS. 7, A and B) and caspase activity assays (FIGS. 7, C and D).

U-87MG cells = assay: Cell viability assay (Ann/PI staining, FACS) with VP16 or Taxol; conditions: for proliferation of cells in the control group (no TG or PTPI): 5-day cell cultures, U-87MG (not shown)
Experimental: as §2, §3

STAT3 mRNA = assay: Real time quantitative RT-PCR; conditions: LN-18; STAT3-siRNA 50-600 pmol; 24 h after transfection; dose-dependent
Experimental: DNA amplification was performed using an […] […] ID NO: 3), STAT3 reverse, [NT] ID NO: 4); and β-actin forward, [NT] ID NO: 5), β-actin reverse, [NT] ID NO: 6).

LN-18 = assay: Annexin V apoptosis detection (FACS) after TRAIL treatment; conditions: TRAIL 300 ng/ml
Experimental: as §2, with “Treatment of cells with TG, GW, PTPI, and/or SHPI for 24 h was followed by treatment with rTRAIL, VP16 or Taxol, and all the cells, including cells that had not adhered, were harvested after 24 h (48 h).” left out
To examine the mechanism that causes resistance to TRAIL, glioma cell lines were used that are partially resistant to TRAIL despite their expression of DR4 and/or DR5. Western blot was used to detect the expression levels of DR4 and DR5 in LN-18, U-87MG, and MG-328 (FIG. 1A). The cytotoxic activity of TRAIL (18.75-300 ng/ml) was examined in each glioma (FIGS. 1, B and C). […] These findings indicate that these gliomas can acquire a resistance to TRAIL despite their expression of functionally intact DR4/5.

[5] = SHPI 200 μM and TG 30 μM, then rTRAIL (not shown)
[6] = STAT3-siRNA-transfected glioma cells

## O=C(Nc1ccccc1)c1cc([N+](=O)[O-])ccc1Cl [GW, GW9662]
caspase-3, -8, and -9 [1]; GW 20 μM and TG 30 μM for 24 h, then rTRAIL 100 ng/ml for 2 h
  effect on the specific activities of caspases in TG/TRAIL-treated cells: did not reduce
[2]; GW 20 μM and TG 30 μM for 24 h
  pY705-STAT3 expression in cells treated with TG and GW: down-regulation of pY705-STAT3 was observed
[2]; GW 20 μM and TG 30 μM for 24 h, LN-18 and U-87MG
  effect on the up-regulation of pS392-p53 induced by TG: abrogated
[2]; GW 20 μM and TG 30 μM for 24 h, U-87MG
  effect on the up-regulation of Bax found in TG-treated cells: inhibited
[3]; GW 20 μM and TG 30 μM for 24 h, then rTRAIL 100 ng/ml for 24 h
  effect on the activity of TG in TRAIL-treated glioma cells (cell viability): not blocked

## O=C(CBr)c1ccc(O)cc1 [PTPI, α-bromo-4-hydroxyacetophenone]
caspase-3, -8, and -9 [1]; PTPI 50 μM and TG 30 μM, then rTRAIL 100 ng/ml for 2 h
  effect on the effect of TG on TRAIL (caspase activity): abrogated
[2]; PTPI 50 μM and TG 30 μM for 24 h
  effect on the inhibitory effect of TG on pY705-STAT3: abrogated
[2]; PTPI 50 μM and TG 30 μM for 24 h, LN-18 and U-87MG
  effect on the upregulation of pS392-p53 caused by TG: did not inhibit
[3]; PTPI 50 μM and TG 30 μM, then rTRAIL 100 ng/ml (not shown)
  effect on the effect of TG on TRAIL (cell viability): abrogated
caspase-3, -8, and -9 [4]
  effect on the effect of TG on the activity of caspase-8 and -9: completely abrogated
  inhibition of caspase-3 activity in TG-treated cells with VP16 or Taxol: limited effect
U-87MG cells; U-87MG, PTPI 50 μM and TG 30 μM for 24 h, then VP16 or Taxol
  inhibition of the cytotoxic activity in TG-treated cells with VP16 or Taxol: limited effect

## O=C(O)COc1ccc(C(=O)CBr)cc1 [SHPI, α-bromo-4-carboxymethoxyacetophenone]
caspase-3, -8, and -9 [1]; [5]
  effect on the effect of TG on TRAIL (caspase activity): did not abrogate
[2]; SHPI 200 μM and TG 30 μM for 24 h
  effect on the downregulation of pY705-STAT3 induced by TG: did not inhibit
[3]; [5]
  effect on the effect of TG on TRAIL (cell viability): did not abrogate

## Cc1c(C)c2c(c(C)c1O)CCC(C)(COc1ccc(CC3SC(=O)NC3=O)cc1)O2 (centres unmarked) [TG, troglitazone]
[2]; TG 30 μM
  time at which down-regulation of pY705-STAT3 was noticeable: 8 h
[2]; TG 30 μM, LN-18, U-87MG, MG-328
  STAT3 expression levels: no effect
[2]; TG 30 μM, all gliomas
  time at which 42 kDa PTP1B expression reached maximum levels: 16 to 32 h
  time of start of up-regulation of the activated form of PTP1B (42 kDa) after treatment: ≤ 4 h
[3]; TG 30 μM for 24 h, then rTRAIL 100 ng/ml for 24 h, LN-18, U-87MG and MG-328
  effect on the cytotoxic activity of TRAIL: significantly enhance
U-87MG cells; U-87MG, TG 30 μM for 24 h, then Taxol 0.005-5 μM for 48 h
  effect on the cytotoxic activity of Taxol (cell viability): positive activities
U-87MG cells; U-87MG, TG 30 μM for 24 h, then VP16 0.01-10 μM for 48 h
  effect on the cytotoxic activity of VP16 (cell viability): positive activities

## CC(=O)O[C@H]1C(=O)[C@@]2(C)[C@H]([C@H](OC(=O)c3ccccc3)[C@]3(O)C[C@H](OC(=O)[C@H](O)[C@@H](NC(=O)c4ccccc4)c4ccccc4)C(C)=C1C3(C)C)[C@]1(OC(C)=O)CO[C@@H]1C[C@@H]2O [Taxol, paclitaxel]
U-87MG cells; Taxol 5 μM
  proliferation of cells in the control group (no TG or PTPI): maintained an ability to proliferate

## COc1cc([C@@H]2c3cc4c(cc3[C@@H](O[C@@H]3O[C@@H]5CO[C@@H](C)O[C@H]5[C@H](O)[C@H]3O)[C@H]3COC(=O)[C@H]23)OCO4)cc(OC)c1O [VP16, Etoposide]
U-87MG cells; VP16 10 μM
  proliferation of cells in the control group (no TG or PTPI): maintained an ability to proliferate

## STAT3-siRNA: double-stranded siRNA oligonucleotide against STAT3 (SEQ ID NO: 1 and 2), Dharmacon (chain 1 AACAUCUGCCUAGAUCGGCUATT; chain 2 UAGCGGAUCUAGGCAGAUG; chain 1: sugars from the 5' end r21 d2, backbone not given here; chain 2: RNA, 3' dTdT, backbone not given here)
caspase-3, -8, and -9 [1]; STAT3-siRNA 600 pmol, then TRAIL 100 ng/ml for 2 h
  specific activities of caspases-3, -8, and -9: significantly increased
caspase-3, -8, and -9 [1]; STAT3-siRNA 600 pmol, cells treated with TG, PTPI and TRAIL
  inhibitory effect of PTPI on TG in transfected glioma cells (caspase activity): negated
[2]; LN-18, STAT3-siRNA 50-600 pmol, 24 h after transfection, dose-dependent
  STAT3 protein expression: decreased
[2]; [6]
  Bax expression levels: not altered
  FLIP and Bcl-2 expression levels: decreased
  pY705-STAT3 expression: down-regulated
[3]; STAT3-siRNA 600 pmol, then TRAIL 100 ng/ml for 24 h
  effect on the cytotoxic effect of TRAIL: significantly enhanced
[3]; STAT3-siRNA 600 pmol, without rTRAIL
  apoptotic death of glioma cells, agent alone: did not induce their apoptotic death
STAT3 mRNA
  STAT3 mRNA expression: decreased

B1: TRAIL: Recombinant human tumor necrosis factor-related apoptosis-inducing ligand, obtained from Pepro-Tech (protein, UniProt P50591 1-281, looked up)
Tumor necrosis factor ligand …: MAMMEVQGGPSLGQTCVLIVIFTVLLQSLCVAVTYVYFTNELKQMQDKYSKSGIACFLKEDDSYWDPNDEESMNSPCWQVKWQLRQLVRKMILRTSEETISTVQEKQQNISPLVRERGPQRVAAHITGTRGRSNTLSSPNSKNEKALGRKINSWESSRSGHSFLSNLHLRNGELVIHEKGFYYIYSQTYFRFQEEIKENTKNDKQMVQYIYKYTSYPDPILLMKSARNSCWSKDAEYGLYSIYQGGIFELKENDRIFVSVTNEHLIDMDHEASFFGAFLVG
[3]; 300 ng/ml TRAIL, after 24 h of treatment, LN-18, U-87MG, MG-328
  cell death: 40-60%
[3]; TRAIL 100 ng/ml, 72-h cell culture, each glioma (not shown)
  cells killed by TRAIL in the STAT3-siRNA-transfected group: more than 95%
[3]; after 72 h of cell culture with 300 ng/ml TRAIL (not shown)
  proliferative ability of the viable cells: maintained a proliferative ability
LN-18; after 2 h of treatment
  percentage of Ann(+) PI(−) cells (early stage of apoptosis): 33.7%
LN-18; after 24 h of treatment
  percentage of Ann(+) PI(−) cells (early stage of apoptosis): 60.1%

From patent US20090264483A1, “METHODS OF USING PPAR-gamma AGONISTS AND CASPASE-DEPENDENT CHEMOTHERAPEUTIC AGENTS FOR THE TREATMENT OF CANCER” (CEDARS-SINAI MEDICAL CENTER, priority 2006, published 2009)
